Source: patent publication US6184401A, “Alpha-fluoro alkynoic acids with anticonvulsant activity” (priority 1999, dated 2001)

Experiments:
hepatotoxicity = conditions: effect of the 2-fluoro substituent; cited from earlier work
[1] = anticonvulsant; cited from earlier work
[2] = tested on: animals (seizure induced by pentylenetetrazole); assay: PTZ convulsion test (anticonvulsant activity); assay type: in vivo; conditions: intraperitoneal, sodium salt, PTZ 65 mg/kg s.c. after 15 minutes
Protocol: The anti-convulsive activity of the compounds of the invention was determined by the PTZ convulsion test (E. Swinyard et al., 1969, "Laboratory Evaluation of Antiepileptic Drugs, Review of Laboratory Methods," Epilepsia 10, 107-119; E. Swinyard, J. Woodhead, in Antiepileptic Drugs, 2nd ed., D. Woodbury, J. Penry, C. Pippenger, eds., Raven Press, New York, 1982, 111-126). Briefly, animals were dosed intraperitoneally with the sodium salt of the compound to be tested, and then challenged after 15 minutes with a subcutaneous injection of pentylenetetrazole (65 mg/kg). The percentage of animals that were protected from seizure (defined as at least one episode of continuous seizure activity lasting at least five seconds) is reported in Table 1 as "Anticonvulsant Activity %".

fetuses = assay: Teratogenic potential: exencephaly in fetuses of treated pregnant animals; assay type: in vivo; conditions: sodium salt, injected day 8 of gestation, fetuses examined day 18
Protocol: The teratogenic potential of the compounds was determined by injecting pregnant animals on day 8 of gestation with the sodium salt of the compound to be tested, and by examining the fetuses on day 18 of gestation (H. Nau, 1985, Toxicol. Appl. Pharmacol., 80, 243-250; H. Nau, W. Loscher, 1986, Fund. Appl. Toxicol., 6, 669).

animals = assay type: in vivo; conditions: dose 1.5 mmol/kg, sodium salt, after 15 minutes
Protocol: The sedative activity of the compounds was determined by the "Rotorod" test (Dunham, Miya, 1957, J. Am. Pharm. Assoc., 46, 208-209). Animals were dosed with the sodium salt of the compound to be tested, and after 15 minutes they were placed on the ROTOROD apparatus (Rotorod, Ugobasile, Italy). The percentage of animals that fell from the rod is reported as "Sedative Activity %" in Table 1.

[3] = tested on: newborns of women taking VPA; conditions: newborns of women taking VPA during pregnancy; cited from earlier work
mice = conditions: cited from earlier work
[4] = in vivo; cited from earlier work
children on polytherapy = conditions: young children on polytherapy; cited from earlier work

C=CCC(F)(CCC)C(=O)O (centres unmarked) [2-fluoro-2-propyl-4-pentenoic acid]
hepatotoxicity relative to 2-propyl-4-pentenoic acid (hepatotoxicity): reduce hepatotoxicity relative to 2-propyl-4-pentenoic acid

CCCC(F)(CCC)C(=O)O [2-fluoro-2-propylpentanoic acid]
potency relative to VPA [1]: less potent than VPA

O=C(O)C(CCC(F)(F)F)CCC(F)(F)F [5,5,5-trifluoro-2-(3,3,3-trifluoropropyl) pentanoic acid]
potency relative to VPA [1]: less potent than VPA

CCCC(CCC(F)(F)F)C(=O)O (centres unmarked) [5,5,5-trifluoro-2-n-propyl pentanoic acid]
potency relative to VPA [1]: less potent than VPA

CC#CCC(F)(CCC)C(=O)O (centres unmarked) [Example 3, 2-fluoro-2-n-propyl-4-hexynoic acid]
Anticonvulsant Activity % (percentage of animals protected from seizure) ([2]; dose 1.5 mmol/kg): 20% | Teratogenic Activity % (percent of fetuses exhibiting exencephaly) (fetuses; dose 3.0 mmol/kg): 2%

CC#CCC(F)(CCCCC)C(=O)O (centres unmarked) [Example 5, 2-fluoro-2-n-pentyl-4-hexynoic acid]
Anticonvulsant Activity % (percentage of animals protected from seizure) ([2]; dose 1.5 mmol/kg): 80% | Teratogenic Activity % (percent of fetuses exhibiting exencephaly) (fetuses; dose 1.5 mmol/kg): 1%

CC#CCC(F)(CCCCCCC)C(=O)O (centres unmarked) [Example 7, 2-fluoro-2-n-heptyl-4-hexynoic acid]
Anticonvulsant Activity % (percentage of animals protected from seizure) ([2]; dose 0.5 mmol/kg): 60% | Teratogenic Activity % (percent of fetuses exhibiting exencephaly) (fetuses; dose 1.0 mmol/kg): 0%

CC#CCC(F)(CCCCCCCC)C(=O)O (centres unmarked) [Example 8, 2-fluoro-2-n-octyl-4-hexynoic acid]
Anticonvulsant Activity % (percentage of animals protected from seizure) ([2]; dose 0.25 mmol/kg): 40% | Teratogenic Activity % (percent of fetuses exhibiting exencephaly) (fetuses; dose 0.5 mmol/kg): 0%

CCCC(CCC)C(=O)O [VPA, 2-propylpentanoic acid]
Anticonvulsant Activity % (percentage of animals protected from seizure) ([2]; dose 1.0 mmol/kg): 60% | Sedative Activity % (percentage of animals that fell from the rod) (animals): 40% | Teratogenic Activity % (percent of fetuses exhibiting exencephaly) (fetuses; dose 3.0 mmol/kg): 50% | risk of spina bifida [3]: 1-2% | neural tube defects (mice): induce neural tube defects in mice | duration of action [4]: short duration of action | serious side effects [4]: sedation, potentially fatal hepatotoxicity, and teratogenicity | VPA-induced hepatic fatality rate (children on polytherapy): 1/500
